Experimental findings from patent publication US10377698B2, “Diphenethylamine derivatives which are inter alia useful as analgesics and method for their production” (UNIVERSITY OF INNSBRUCK, priority 2015, dated 2019) are described below.

Usually melting point stands for the temperature, or range, at which the solid turns liquid. The term EC50 denotes the concentration giving half of the maximal effect. One may read the Emax as the size of the effect at its maximum, as opposed to the concentration needed. As usually defined, the Ki is the dissociation constant of the complex between target and ligand, obtained from inhibition or displacement.

The target in data set [1] is T1, KOR (Homo sapiens, UniProt P41145). Briefly: KOR-mediated β-arrestin2 recruitment, DiscoveRx PathHunter assay, U2OS-hMOR-β-arrestin2 cells. The following applies: for Emax: read-out: β-arrestin2 recruitment assay Emax. The format is cell-based. (Activated receptors often draw arrestin, which recruitment assays turn into a signal.)
T1 sequence (P41145 whole entry): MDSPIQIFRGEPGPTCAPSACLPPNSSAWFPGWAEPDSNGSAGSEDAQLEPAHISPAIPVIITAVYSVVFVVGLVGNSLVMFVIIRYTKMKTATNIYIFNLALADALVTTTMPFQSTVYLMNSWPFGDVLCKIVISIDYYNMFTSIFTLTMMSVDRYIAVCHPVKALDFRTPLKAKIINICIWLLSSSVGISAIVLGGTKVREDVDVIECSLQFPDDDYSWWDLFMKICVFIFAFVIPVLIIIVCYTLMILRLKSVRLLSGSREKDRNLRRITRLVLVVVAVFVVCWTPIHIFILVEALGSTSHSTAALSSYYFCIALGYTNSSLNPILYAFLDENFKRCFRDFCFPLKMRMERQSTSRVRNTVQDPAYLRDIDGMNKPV
For another data set, the target named is T2, human DOR (Homo sapiens, UniProt P41143).
T2 construct: expressed in transfected cells; host or cells: CHO cells (membranes)
T2 sequence (P41143 whole entry): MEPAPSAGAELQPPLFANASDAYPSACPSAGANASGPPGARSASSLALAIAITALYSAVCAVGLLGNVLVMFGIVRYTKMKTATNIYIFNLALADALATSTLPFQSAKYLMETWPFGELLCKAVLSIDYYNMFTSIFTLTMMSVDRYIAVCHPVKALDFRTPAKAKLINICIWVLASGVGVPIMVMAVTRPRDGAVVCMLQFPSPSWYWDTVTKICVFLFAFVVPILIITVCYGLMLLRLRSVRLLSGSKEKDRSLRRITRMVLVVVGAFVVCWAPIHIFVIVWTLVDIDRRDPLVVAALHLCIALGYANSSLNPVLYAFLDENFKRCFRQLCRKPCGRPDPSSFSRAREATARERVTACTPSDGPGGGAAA
Kind of data set: Opioid receptor binding assay, competition binding, CHO cell membranes (DOR). The following applies: membranes from CHO cells stably expressing human DOR; read-out: Affinity Ki DOR.

On the set-up of data set [2]: species or system mice. The following applies: mouse, in vivo, sc.
The target in data set [3] is T1, KOR. Kind of data set: biochemical. The following applies: for Emax: read-out: [35S]GTPγS binding KOR Emax. Also on record: expressed in transfected cells; host or cells: CHO cells (membranes). The format is biochemical.
Data set [4] deals with T1, KOR. Briefly: biochemical. It counts as binding. Also on record: expressed in transfected cells; host or cells: CHO cells (membranes).
For the next data set, the target named is T3, human MOR (Homo sapiens, UniProt P35372).
T3 construct: expressed in transfected cells; host or cells: CHO cells (membranes)
T3 sequence (P35372 whole entry): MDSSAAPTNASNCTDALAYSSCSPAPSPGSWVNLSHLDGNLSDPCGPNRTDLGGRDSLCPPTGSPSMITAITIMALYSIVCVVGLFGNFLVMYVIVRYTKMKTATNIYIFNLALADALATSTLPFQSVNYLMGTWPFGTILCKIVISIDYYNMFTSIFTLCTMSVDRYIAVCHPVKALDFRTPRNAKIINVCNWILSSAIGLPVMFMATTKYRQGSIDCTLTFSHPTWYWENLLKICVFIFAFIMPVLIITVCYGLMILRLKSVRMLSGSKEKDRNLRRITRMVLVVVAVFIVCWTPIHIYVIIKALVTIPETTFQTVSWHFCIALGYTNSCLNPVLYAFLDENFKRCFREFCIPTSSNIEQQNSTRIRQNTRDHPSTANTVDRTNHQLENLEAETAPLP
Kind of data set: Opioid receptor binding assay, competition binding, CHO cell membranes (MOR). The following applies: membranes from CHO cells stably expressing human MOR; read-out: Affinity Ki MOR.

Setting [5] is: read-out: [35S]GTPγS binding KOR EC50.

Counter-ions that a name gives are not always drawn. Like-named read-outs stand apart in the source and are kept apart here. Some results are limits rather than exact numbers.

In turn, `Oc1cccc(CCN(CCc2cccc(O)c2)CC2CC2)c1` yielded a melting point of 106 to 107 °C.

`C=CCN(CCc1cccc(O)c1)CCc1cccc(O)c1`: the melting point was 104 to 106 °C.

Compound `CC(C)CCN(CCc1cccc(O)c1)CCc1cccc(O)c1` registered a melting point of 71 to 72 °C.

For `CCCCN(CCc1cccc(O)c1)CCc1cccc(O)c1`, the melting point fell in the range of 62 to 64 °C.

In turn, `CCCCCN(CCc1cccc(O)c1)CCc1cccc(O)c1` returned a melting point of 70 to 72 °C.

As to `CCCCCCN(CCc1cccc(O)c1)CCc1cccc(O)c1`, the melting point lay within 75 to 76 °C.

Consider `Oc1ccc(CCN(CCc2cccc(O)c2)CC2CCCCC2)cc1`, for which the melting point was 155 to 157 °C.

For `C=CCN(CCc1ccc(O)cc1)CCc1cccc(O)c1`, the melting point fell in the range of 103 to 105 °C.

The compound `CCCCN(CCc1ccc(O)cc1)CCc1cccc(O)c1` came in with a melting point of 65 to 68 °C.

Compound `Oc1ccc(CCN(CCc2cccc(O)c2)CC2CC2)cc1` displayed a melting point of 104 to 105 °C.

In turn, `Oc1cccc(CCN(CCc2ccccc2)Cc2ccccc2)c1F` yielded a melting point of 126 to 128 °C.

Compound `Oc1ccc(CCN(CCc2ccccc2)CC2CCCC2)cc1` returned a melting point of 150 to 153 °C.

For the compound `CC(C)CCN(CCc1ccccc1)CCc1cccc(O)c1`, the melting point fell in the range of 149 to 150 °C.

Turning to `Oc1cccc(CCN(CCc2ccccc2)C2CCC2)c1`, the melting point lay in the range of 100 to 101 °C.

The compound `Nc1cccc(CCN(CCc2ccccc2)CC2CCC2)c1` (as salt: hydrochloride) came in with a melting point of 68 to 70 °C.

With `Oc1cccc(CCN(CCc2ccccc2)CC2CCCC2)c1` [Compound 2, 3-[2-[(Cyclopentylmethyl)(phenethyl)amino]ethyl]phenol], the melting point fell in the range of 154 to 156 °C. At KOR [1], it took 1340 nM to reach a half-maximal effect (EC50) and the Emax is 83%. At human DOR, the Ki was determined as 5210 nM. For the same compound, in data set [2], the ED50 writhing test is reported as 0.54 mg/kg, s.c; the “Relative analgesic potency to HS665” value amounted to 3.5; the “Relative analgesic potency to HS666” value was 6.0; the “Relative analgesic potency to U50,488” value is 2.9. At KOR [3], the EC50 is 4.19 nM and the Emax is 72.9%.

With `Oc1cccc(CCN(CCc2ccccc2)CC2CCCCC2)c1` [Compound 3, 3-[2-[(Cyclohexylmethyl)(phenethyl)amino]ethyl]phenol], the melting point was 150 to 151 °C. At KOR [1], the Bias factor stood at 2909, it took 1360 nM to reach a half-maximal effect (EC50) and the Emax stood at 72.2%. Also, the Ki at KOR [4] is 0.088 nM. Besides, on human DOR, the Ki is 2140 nM. Besides, in data set [2], the ED50 writhing test is listed as 0.97 mg/kg, s.c; the “Relative analgesic potency to HS665” value was 2.0; the “Relative analgesic potency to HS666” value came out at 3.3; the “Relative analgesic potency to U50,488” value turned out to be 1.6. Further, on human MOR, the inhibition constant (Ki) was 436 nM. Further, the EC50 on KOR [3] (setting [5]) is 0.23 nM. Moreover, at KOR [3], the Emax was 61.9%.

`Oc1cccc(CCN(CCc2ccccc2)Cc2ccccc2)c1` [Compound 4, 3-[2-[Benzyl(phenethyl)amino]ethyl]phenol] returned a melting point of 177 to 178 °C. On KOR [1], the Bias factor stood at 1172 and the Emax turned out to be 37.3%. Besides, at KOR [1] (DiscoveRx PathHunter assay, U2OS-hMOR cells, read-out: β-arrestin2 recruitment assay EC50), the EC50 was 4450 nM. Moreover, at KOR [4] (read-out: Affinity Ki KOR), the Ki amounted to 0.71 nM. For the same compound, the Ki at human DOR turned out to be 1860 nM. In addition, in data set [2], the “Relative analgesic potency to HS665” value was determined as 1.6, the “Relative analgesic potency to HS666” value turned out to be 2.7 and the “Relative analgesic potency to U50,488” value is listed as 1.3. For the same compound, at human MOR, the Ki is 463 nM. Also, the EC50 at KOR [3] (setting [5]) is 4.65 nM. In addition, at KOR [3], the maximal effect (Emax) was 79.5%.

On KOR [4], `Oc1cccc(CCN(CCc2cccc(O)c2)CC2CCC2)c1` [Compound 12, 3,3′-[2,2′-(Cyclobutylmethylazanediyl)bis(ethane-2,1-diyl)]diphenol] returned a Ki of 0.34 nM. Moreover, the Ki on human DOR stood at 4180 nM. Besides, in data set [2], the ED50 writhing test is listed as 1.59 mg/kg, s.c; the “Relative analgesic potency to HS665” value was 1.2; the “Relative analgesic potency to HS666” value came out at 2.0; the “Relative analgesic potency to U50,488” value is recorded as 1.0. Moreover, the Ki at human MOR worked out at 230 nM. At KOR [3], the EC50 worked out at 5.51 nM and the Emax turned out to be 71.4%.

The compound `COc1cccc(CCN(CCc2ccc(O)cc2)CC2CCCC2)c1` [Compound 27, 4-[2-[(Cyclopentylmethyl)(3-methoxyphenethyl)amino]ethyl]phenol] yielded a melting point of 74 to 77 °C. For the same compound, affinity at KOR [4] was put at a Ki of 0.17 nM. For the same compound, the Ki at human DOR is 6240 nM. Further, the Ki at human MOR was found to be 158 nM. Further, at KOR [3], the half-maximal effective concentration (EC50) turned out to be 22.8 nM and the Emax turned out to be 73.6%.

In turn, `Oc1cccc(CCN(CCc2cccc(O)c2)CC2CCCCC2)c1` [Compound 29, 3,3′-[2,2′-(Cyclohexylmethylazanediyl)bis(ethane-2,1-diyl)]diphenol] displayed a melting point of 157 to 158 °C. On KOR [4], this compound returned a Ki of 0.18 nM. In addition, at human MOR, the Ki was determined as 219 nM. Further, on KOR [3], the half-maximal effective concentration (EC50) turned out to be 10.6 nM and the Emax was 92.2%.

The compound `Oc1cccc(CCN(CCc2cccc(O)c2)CC2CCCC2)c1` [Compound 39, 3,3′-[2,2′-(Cyclopentylmethylazanediyl)bis(ethane-2,1-diyl)]diphenol] gave a melting point of 113 °C. Besides, the affinity on KOR [4] corresponds to a Ki of 0.38 nM. Besides, at human MOR, the Ki turned out to be 702 nM. On KOR [3], the EC50 was found to be 14.2 nM and the Emax amounted to 83.6%.

As to `Oc1cccc(CCN(CCc2ccccc2)CC2CCC2)c1F` [Compound 49, 3-[2-[(Cyclobutylmethyl)(phenethyl)amino]ethyl]-2-fluorophenol], the Bias factor on KOR [1] is 82. In addition, the 50% effective concentration (EC50) at KOR [1] came out at 859 nM; at KOR [3] (setting [5]), 6.9 nM. For the same compound, the results for the Emax at KOR [1] and at KOR [3] were 57.5% and 66.1%, respectively. Also, the Ki was 0.022 nM on KOR [4] and 414 nM at human MOR.

For the compound `Oc1cccc(CCN(CCc2ccccc2)CC2CCCCC2)c1F` [Compound 51, 3-[2-[(Cyclohexylmethyl)(phenethyl)amino]ethyl]-2-fluorophenol], the melting point is 129 to 130 °C. In addition, on KOR [1], the Bias factor is recorded as 1514; the midpoint of the response, the EC50, lay at 4180 nM; the Emax was 48.4%. At KOR [4], this compound returned a Ki of 0.046 nM. In data set [2], the ED50 writhing test is 1.20 mg/kg, s.c; the “Relative analgesic potency to HS665” value came out at 1.6; the “Relative analgesic potency to HS666” value was 2.7; the “Relative analgesic potency to U50,488” value amounted to 1.3. Also, the Ki on human MOR was determined as 543 nM. For the same compound, the EC50 at KOR [3] (setting [5]) was determined as 2.77 nM. Moreover, the Emax on KOR [3] was found to be 84.6%.

Regarding `Oc1cccc(CCN(CCc2cccc(O)c2F)CC2CCC2)c1` [Compound 53, 3-[2-[(Cyclobutylmethyl)(3-hydroxyphenethyl)amino]ethyl]-2-fluorophenol], the Bias factor on KOR [1] is listed as 263. Moreover, the values for the EC50 on KOR [1] and on KOR [3] (setting [5]) were 529 nM and 1.49 nM, respectively. Also, the Emax at KOR [1] was found to be 41.2%; on KOR [3], 53.1%. In addition, the Ki on KOR [4] (read-out: Affinity Ki KOR) worked out at 0.12 nM; at human DOR, 4750 nM; on human MOR, 548 nM.

Regarding `Oc1cccc(CCN(CCc2ccccc2)CC2CCC2)c1` [HS665, reference compound], the Ki at human DOR was more than 10000 nM. For the same compound, the ED50 writhing test in data set [2] was 1.91 mg/kg, s.c.

Regarding `Cl.Oc1cccc(CCN(CCc2ccccc2)CC2CC2)c1` [HS666, 3-[2-[(Cyclopropylmethyl)(phenethyl)amino]ethyl]phenol Hydrochloride, reference compound], on KOR [1], the Bias factor amounted to 18, a half-maximal effect (EC50) was put at 502 nM and the Emax worked out at 25%. For the same compound, the Ki at KOR [4] (read-out: Affinity Ki KOR) turned out to be 5.9 nM. Further, on human DOR, the inhibition constant Ki was more than 10000 nM. Further, in data set [2], the ED50 writhing test was 3.23 mg/kg, s.c; the “Relative analgesic potency to HS665” value is 0.6; the “Relative analgesic potency to HS666” value is 1.0; the “Relative analgesic potency to U50,488” value was found to be 0.5. In addition, the Ki at human MOR came out at 826 nM. Moreover, at KOR [3] (setting [5]), the 50% effective concentration (EC50) was 35 nM. The Emax at KOR [3] worked out at 53.4%.
